Results taken from US20240368163A1, “COMPOUNDS AND METHODS FOR MODULATING SPLICING” (REMIX THERAPEUTICS INC., priority 2021, published 2024).

System: Target C
Experiment: HiBiT protein abundance assay, Target C
Type: cell-based, human
Settings: modified K562 cells
Outline: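 HiBiT knock-in K562-derived cells seeded at 10000/well and treated with 10-point 3-fold dilutions (top final 10 μM, ≤0.25% DMSO) for 24 h at 37 °C. Lytic HiBiT luminescence normalised to unmodified-cell and DMSO controls; IC50 from 4-parameter fit at 50% abundance.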

[1] = Homo sapiens, K562, 24 h, Table 13A
[2] = Homo sapiens, K562, 24 h, Table 13B

Structure (SMILES)	IC50 [1] [µM]	IC50 [2] [µM]	also measured
CN(c1ccc(-c2cc(F)c(-c3cn[nH]c3)c3cn[nH]c23)nn1)[C@@H]1C[C@H]2CC(F)(F)[C@@H](C1)N2 (stereo in doubt) [Compound 378, 6,6-difluoro-N-{6-[5-fluoro-4-(1H-pyrazol-4-yl)-1H-indazol-7-yl]pyridazin-3-yl}-N-methyl-8-azabicyclo[3.2.1]octan-3-amine]	< 0.1		
CN(c1ccc(-c2ccc(-c3cn[nH]c3)c3ncsc23)nn1)[C@@H]1C[C@H]2CC(F)(F)[C@@H](C1)N2 (stereo in doubt) [Compound 379, 6,6-difluoro-N-methyl-N-{6-[4-(1H-pyrazol-4-yl)-1,3-benzothiazol-7-yl]pyridazin-3-yl}-8-azabicyclo [3.2.1]octan-3-amine]	0.1 to 1		
CN(c1ccc(-c2ccc(-c3cn[nH]c3)c3cn[nH]c23)nn1)[C@@H]1C[C@H]2CC[C@@H](C1)N2 [Compound 104]	0.1 to 1		
CN(c1ccc(-c2ccc(-n3cccn3)c3cn[nH]c23)nn1)[C@@H]1C[C@H]2CC[C@@H](C1)N2 [Compound 105]	< 0.1		
CN(c1ccc(-c2ccc(-c3cn[nH]c3)c3ncsc23)nn1)C1CC(C)(C)NC(C)(C)C1 [Compound 132]	0.1 to 1		
CN(c1ccc(-c2ccc(-c3cn[nH]c3)c3cn[nH]c23)nn1)C1CC(C)(C)NC(C)(C)C1 [Compound 137]	0.1 to 1		
CN(c1ccc(-c2ccc(-c3ccc(=O)n(C)c3)c3scnc23)nn1)C1CC(C)(C)NC(C)(C)C1 [Compound 178]	> 10		
CC1(C)CC(Oc2ccc(-c3ccc(-c4cn[nH]c4)c4ncsc34)nn2)CCN1 (stereo not drawn) [Compound 182]	0.1 to 1		
c1nc2c(-c3cn[nH]c3)ccc(-c3ccc(OC4CCNCC4)nn3)c2s1 [Compound 183]	< 0.1		
c1nc2c(-c3cn[nH]c3)ccc(-c3ccc(O[C@@H]4C[C@H]5CC[C@@H](C4)N5)nn3)c2s1 [Compound 184]	0.1 to 1		
CC1(C)CC(Nc2ccc(-c3ccc(-c4cn[nH]c4)c4ncsc34)nn2)CC(C)(C)N1 [Compound 186]	< 0.1		
c1nc2c(-c3cn[nH]c3)ccc(-c3ccc(N[C@@H]4C[C@H]5CC[C@@H](C4)N5)nn3)c2s1 [Compound 202]	0.1 to 1		
CCN(c1ccc(C2=CC=C(c3cn[nH]c3)C3N=CSC23)nn1)[C@@H]1C[C@H]2CC[C@@H](C1)N2 (stereo partly drawn) [Compound 203]	< 0.1		
CN(c1ccc(-c2ccc(-c3cn[nH]c3)c3ncsc23)nn1)[C@H]1C[C@]2(C)CC[C@](C)(C1)N2 [Compound 204]	< 0.1		
[2H]C([2H])([2H])N(c1ccc(-c2ccc(-c3cn[nH]c3)c3ncsc23)nn1)[C@@H]1C[C@H]2CC[C@@H](C1)N2 [Compound 210]	< 0.1		
CN(c1ccc(-c2ccc(-c3cn[nH]c3)c3ncsc23)nn1)[C@@H]1C[C@H]2CC[C@@H](C1)N2 [Compound 213]	< 0.1		
c1nc2c(-c3cn[nH]c3)ccc(-c3ccc(N[C@@H]4C[C@H]5CCC[C@@H](C4)N5)nn3)c2s1 [Compound 215]	< 0.1		
Fc1cc(-c2ccc(O[C@@H]3C[C@H]4CC[C@@H](C3)N4)nn2)c2[nH]ncc2c1-c1cn[nH]c1 [Compound 216]	0.1 to 1		
CN(c1ccc(-c2ccc(-c3cn[nH]c3)c3ncsc23)nn1)[C@@H]1C[C@H]2CCC[C@@H](C1)N2 [Compound 226]	< 0.1		
[2H]C([2H])([2H])N(c1ccc(-c2ccc(-c3cn[nH]c3)c3ncsc23)nn1)[C@@H]1C[C@H]2CCC[C@@H](C1)N2 [Compound 227]	< 0.1		
CCN(c1ccc(-c2ccc(-c3cn[nH]c3)c3ncsc23)nn1)[C@@H]1C[C@H]2CCC[C@@H](C1)N2 [Compound 228]	< 0.1		

Structure (SMILES)	IC50 [1] [µM]	IC50 [2] [µM]	also measured
CN(c1ccc(-c2ccc(-c3cnn(C)c3)c3cn[nH]c23)nn1)C1CCNCC1 [Compound 242]	> 10		
CN(c1ccc(-c2cc(F)c(-c3cnn(C)c3)c3cn[nH]c23)nn1)[C@@H]1C[C@H]2CC[C@@H](C1)N2 [Compound 291]	< 0.1		
c1n[nH]cc1-c1ccc(-c2ccc(N[C@@H]3C[C@H]4CCC[C@@H](C3)N4)nn2)c2[nH]ncc12 [Compound 294]	0.1 to 1		
CC1(C)CC(Oc2ccc(-c3cc(F)c(-c4cn[nH]c4)c4cn[nH]c34)nn2)CC(C)(C)N1 [Compound 307]	0.1 to 1		
c1nc2c(-c3cn[nH]c3)ccc(-c3ccc(N(C4CC4)C4C[C@H]5CCC[C@@H](C4)N5)nn3)c2s1 (stereo partly drawn) [Compound 311]	< 0.1		
Fc1cc(-c2ccc(O[C@@H]3C[C@H]4CC[C@@H](C3)N4)nn2)c2sncc2c1-c1cn[nH]c1 [Compound 327]	< 0.1		
COc1cc(-c2ccc(-c3ccc(N(C)C4CC(C)(C)NC(C)(C)C4)nn3)c3scnc23)cnn1 [Compound 330]	< 0.1		
CC(C)(C)NC1CCN(c2ccc(-c3ccc(-c4cn[nH]c4)c4ncsc34)nn2)C1 (stereo not drawn) [Compound 336]			IC50 (Table 13A, 24 hours): 0.1 to 1 µM
c1nc2c(-c3cn[nH]c3)ccc(-c3ccc(N4CCC(NC5CC5)C4)nn3)c2s1 (stereo not drawn) [Compound 337]	> 10		
Fc1cc(-c2ccc(N[C@@H]3C[C@H]4CC[C@@H](C3)N4)nn2)c2scnc2c1-c1cn[nH]c1 [Compound 339]	< 0.1		
Cc1ncc(-c2ccc(-c3ccc(O[C@@H]4C[C@H]5CC[C@@H](C4)N5)nn3)c3scnc23)s1 [Compound 348, 7-{6-[(exo)-8-azabicyclo[3.2.1]octan-3-yloxy]pyridazin-3-yl}-4-(2-methyl-1,3-thiazol-5-yl)-1,3-benzothiazole]	0.1 to 1		
COc1cc(-c2ccc(-c3ccc(O[C@@H]4C[C@H]5CC[C@@H](C4)N5)nn3)c3scnc23)cnn1 [Compound 362]	< 0.1		
Fc1ccn(-c2ccc(-c3ccc(O[C@@H]4C[C@H]5CC[C@@H](C4)N5)nn3)c3scnc23)n1 [Compound 363]	0.1 to 1		
CN(c1ncc(-c2ccc(-n3cccn3)c3[nH]ncc23)nn1)[C@@H]1C[C@H]2CCC[C@@H](C1)N2 [Compound 551]	< 0.1		
c1cnn(-c2ccc(-c3cnc(N[C@@H]4C[C@H]5CC[C@@H](C4)N5)nn3)c3cn[nH]c23)c1 [Compound 556]	< 0.1		
c1cnn(-c2ccc(-c3cnc(N[C@@H]4C[C@H]5CCC[C@@H](C4)N5)nn3)c3cn[nH]c23)c1 [Compound 561]	< 0.1		
CC(C)(C)C1CN(c2ncc(-c3ccc(-n4cccn4)c4[nH]ncc34)nn2)CCN1 (stereo not drawn) [Compound 572]	0.1 to 1		
CN(c1ncc(-c2ccc(-n3cncn3)c3[nH]ncc23)nn1)[C@@H]1C[C@H]2CCC[C@@H](C1)N2 [Compound 574]	< 0.1		
CN(c1ncc(-c2ccc(-n3ccnn3)c3[nH]ncc23)nn1)[C@@H]1C[C@H]2CCC[C@@H](C1)N2 [Compound 576]	0.1 to 1		
Cc1ncc(-c2ccc(-c3cnc(N(C)[C@@H]4C[C@H]5CCC[C@@H](C4)N5)nn3)c3scnc23)s1 [Compound 578]	< 0.1		
Cc1nc(-c2ccc(-c3cnc(N(C)[C@@H]4C[C@H]5CCC[C@@H](C4)N5)nn3)c3scnc23)cs1 [Compound 579]	0.1 to 1		

Structure (SMILES)	IC50 [1] [µM]	IC50 [2] [µM]	also measured
Cc1cc(-c2ccc(-c3cnc(N(C)[C@@H]4C[C@H]5CCC[C@@H](C4)N5)nn3)c3scnc23)sn1 [Compound 580]	< 0.1		
CC(C)(C)[C@H]1CN(c2ncc(-c3ccc(-n4cccn4)c4[nH]ncc34)nn2)CCN1 [Compound 581]	< 0.1		
COc1nc(-c2ccc(N(C)[C@@H]3C[C@H]4CC[C@@H](C3)N4)nn2)ccc1-c1cn[nH]c1 [Compound 906]		< 0.1	
CN(c1ccc(-c2ccc(-c3cn[nH]c3)cn2)nn1)[C@@H]1C[C@H]2CC[C@@H](C1)N2 [Compound 915]		1 to 10	
COc1nc(-c2ccc(OC3CC(C)(C)NC(C)(C)C3)nn2)ccc1-c1cn[nH]c1 [Compound 917]		< 0.1	
COc1nc(-c2ccc(OC3CC(C)(C)NC(C)(C)C3)nn2)ccc1-c1cnn(C)c1 [Compound 918]		0.1 to 1	
COc1nc(-c2ccc(N(C)C3CC(C)(C)NC(C)(C)C3)nn2)ccc1-c1cn[nH]c1 [Compound 919]		< 0.1	
COc1nc(-c2ccc(N(C)C3CC(C)(C)NC(C)(C)C3)nn2)ccc1-c1cnn(C)c1 [Compound 920]		0.1 to 1	
CN(c1ccc(-c2ccc(-c3cn[nH]c3)c(F)n2)nn1)[C@@H]1C[C@H]2CC[C@@H](C1)N2 [Compound 922]		< 0.1	
CN(c1ccc(-c2ccc(-c3cn[nH]c3)c(C#N)n2)nn1)[C@@H]1C[C@H]2CC[C@@H](C1)N2 [Compound 930]		< 0.1	
COc1nc(-c2ccc(N(C)[C@@H]3C[C@H]4CC[C@@H](C3)N4)nn2)cc(F)c1-c1cn[nH]c1 [Compound 931]		< 0.1	
CN(c1ccc(-c2ccc(-c3cn[nH]c3)c(OC3CC3)n2)nn1)[C@@H]1C[C@H]2CC[C@@H](C1)N2 [Compound 939]		< 0.1	
COc1cc(-c2ccc(-c3ccc(N(C)[C@@H]4C[C@H]5CC[C@@H](C4)N5)nn3)nc2OC)ncn1 [Compound 954]		1 to 10	
CN(c1ccc(-c2ccc(-c3cn[nH]c3)c(OC(F)F)n2)nn1)[C@@H]1C[C@H]2CC[C@@H](C1)N2 [Compound 955]		< 0.1	
COc1nc(-c2ccc(N3CCC(NC(C)(C)C)C3)nn2)ccc1-c1cn[nH]c1 (stereo not drawn) [Compound 956]		0.1 to 1	
COc1nc(-c2ccc(N(C)[C@@H]3C[C@H]4CC[C@@H](C3)N4)nn2)ccc1-c1ccnc(O)c1 [Compound 961]		0.1 to 1	
COc1nc(-c2ccc(O[C@@H]3C[C@H]4CC[C@@H](C3)N4)nn2)ccc1-c1cnc(C)s1 [Compound 962]		0.1 to 1	
COc1nc(-c2ccc(OC3CC(C)(C)NC(C)(C)C3)nn2)cc(F)c1-c1cn[nH]c1 [Compound 965]		< 0.1	
CCOc1nc(-c2ccc(OC3CC(C)(C)NC(C)(C)C3)nn2)cc(F)c1-c1cn[nH]c1 [Compound 966]		< 0.1	
CCOc1nc(-c2ccc(OC3CC(C)(C)NC(C)(C)C3)nn2)ccc1-c1cn[nH]c1 [Compound 967]		< 0.1	
COc1nc(-c2ccc(OC3CC4CC(F)(F)C(C3)N4)nn2)cc(F)c1-c1cn[nH]c1 (stereo not drawn) [Compound 969]		0.1 to 1	
